In US20090042857A1, “Novel Pharmaceutical” (priority 2006, published 2009):
Where a name gives a salt, the structure may show the parent alone.

Biological target: T1, androgen receptor (Rattus norvegicus, UniProt P15207)
T1 sequence (P15207 1-902): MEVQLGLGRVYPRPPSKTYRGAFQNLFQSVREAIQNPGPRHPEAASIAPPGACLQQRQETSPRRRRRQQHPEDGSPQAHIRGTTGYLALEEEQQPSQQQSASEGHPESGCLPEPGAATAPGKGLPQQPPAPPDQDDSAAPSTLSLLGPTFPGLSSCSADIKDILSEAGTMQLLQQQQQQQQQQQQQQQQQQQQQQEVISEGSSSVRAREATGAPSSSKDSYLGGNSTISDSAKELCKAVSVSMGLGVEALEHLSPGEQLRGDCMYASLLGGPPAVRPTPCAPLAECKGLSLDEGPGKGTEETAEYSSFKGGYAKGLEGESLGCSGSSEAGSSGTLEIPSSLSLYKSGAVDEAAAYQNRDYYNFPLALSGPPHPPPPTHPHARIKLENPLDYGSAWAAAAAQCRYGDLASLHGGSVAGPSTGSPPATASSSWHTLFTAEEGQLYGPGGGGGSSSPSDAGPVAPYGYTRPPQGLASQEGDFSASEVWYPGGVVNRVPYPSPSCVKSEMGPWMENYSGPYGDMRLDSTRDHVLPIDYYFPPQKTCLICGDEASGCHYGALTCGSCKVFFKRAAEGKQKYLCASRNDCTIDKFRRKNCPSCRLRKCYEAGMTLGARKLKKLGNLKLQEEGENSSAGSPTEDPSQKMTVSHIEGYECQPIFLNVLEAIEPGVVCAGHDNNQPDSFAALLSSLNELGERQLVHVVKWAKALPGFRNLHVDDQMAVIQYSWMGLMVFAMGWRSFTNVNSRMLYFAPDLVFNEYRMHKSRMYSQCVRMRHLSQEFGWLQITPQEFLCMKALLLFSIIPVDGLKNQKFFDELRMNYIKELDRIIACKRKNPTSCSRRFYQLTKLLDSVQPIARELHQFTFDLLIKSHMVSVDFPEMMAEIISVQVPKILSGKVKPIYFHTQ
Experiment: Measurement of organ selective androgen receptor regulating action (organ weights in castrated, testosterone propionate-supplemented rats)
Type: in vivo, Sprague-Dawley male rat
Design: from tissue; host or cells: Sprague-Dawley male rat, whole animal (levator ani muscle, prostate, vesicular gland)
Details: testosterone propionate 0.5 mg/kg s.c. once a day, twice a day, 1 week
Description: A 3-week-old Sprague-Dawley male rat was castrated, and testosterone•propionate (0.5 mg/kg) was administered subcutaneously once a day from the next day. Simultaneously, a test compound was dissolved in 10% ethanol/corn oil, and orally administered twice a day. The next day of a 1 week administration, the weights of the levator ani muscle, prostate and vesicular gland were measured. The dose of the test compound is indicated in a daily amount.
As the test compounds, compound 114, compound 158, compound 117, compound 119 and compound of Reference Example 2 were used.

[1] = test compound 4.143 mg/kg/day orally
[2] = test compound 13.81 mg/kg/day orally
[3] = test compound 3 mg/kg/day orally
[4] = test compound 10 mg/kg/day orally
[5] = test compound 0.4138 mg/kg/day orally
[6] = test compound 1.379 mg/kg/day orally

## 4-[(2S,3R)-3-hydroxy-2-methyl-1-pyrrolidinyl]-1-naphtonitrile methanesulfonate [compound 114]
[1]
  levator ani muscle weight, relative % to control: 142.1%
  prostate weight, relative % to control: 90.6%
[2]
  levator ani muscle weight, relative % to control: 157.7%
  prostate weight, relative % to control: 99.1%

## C[C@H]1[C@@H](C(C)(C)O)CCN1c1ccc(C#N)c2sccc12 [Reference Example 2, 4-[(2S,3S)-3-(1-hydroxy-1-methylethyl)-2-methylpyrrolidin-1-yl]-1-benzothiophene-7-carbonitrile]
[3]
  levator ani muscle weight, relative % to control: 108.0%
  prostate weight, relative % to control: 92.0%
[4]
  levator ani muscle weight, relative % to control: 120.1%
  prostate weight, relative % to control: 87.5%

## C[C@H]1[C@@H](O)CCN1c1ccc(C#N)c2sccc12 [compound 119, 4-[(2S,3S)-3-hydroxy-2-methyl-1-pyrrolidinyl]-1-benzothiophene-7-carbonitrile sulfate]
[5]
  levator ani muscle weight, relative % to control: 131.5%
  prostate weight, relative % to control: 87.8%
[6]
  levator ani muscle weight, relative % to control: 151.8%
  prostate weight, relative % to control: 91.4%
